# Results as given in patent publication US5177102A, “Polyisoprene compounds and salts thereof” (Sanwa Kagaku Kenkyusho Co., Ltd., priority 1990, dated 1993).
# Read-outs that look alike come from different tables or passages of the source.
# Tested on: stress-induced gastric ulcer
# Assay: Anti-ulcer activity: water-immersion restraint stress-induced gastric ulcer in rats, oral (procedure of Takagi et al.)
# Format: in vivo, Male Sprague-Dawley rats
# Details: for ED50: read-out: ED50 (dose of test compound which gives 50% inhibition)
# Experimental: Some polyisoprene compounds according to the invention were tested to evaluate their anti-ulcer activity in comparison with Teprenone and Gefarnate as controls, in accordance with the procedure proposed by Takagi et al ["Japan. J. Pharmacol.", Vol. 18, page 9 (1968)].
# Male Sprague-Dawley rats were used, each having the body weight of 183.9 to 234.5 g. The animals were deprived of food for 24 hours prior to the test. They were immobilized in a restraint cage and immersed for 7 hours to the height of the xiphoid process in a water-bath kept at 23°±1° C. After inflation with 10 ml of 1% formalin, the isolated stomach was opened along the greater curvature. The ulcer index was determined as the sum of length (mm) of each erosion per rat. The compounds were administered orally 30 minutes before the restraint.
# Results are shown in following Table 1 in terms of percent inhibition of anti-ulcer activity. In the Table, ED50 represents the dose of test compound which gives 50% inhibition.
# [1] = oral, 30 minutes before restraint, rat, read-out: Inhibition (percent inhibition, ulcer index)
# [2] = oral, 30 minutes before restraint, rat
# [3] = Rattus norvegicus, po, read-out: Inhibition (percent inhibition, ulcer index)
Structure (SMILES),inhibition in vivo at 12.5 mg/kg [1] [%],inhibition in vivo at 25 mg/kg [1] [%],inhibition in vivo at 50 mg/kg [1] [%],ED50 [2] [mg/kg],"ED50 (Rattus norvegicus, po) [mg/kg]",inhibition in vivo at 100 mg/kg [3] [%],inhibition in vivo at 200 mg/kg [3] [%],inhibition in vivo at 400 mg/kg [3] [%],"inhibition in vivo at 100 mg/kg (100 mg/kg, oral, 30 minutes before restraint, rat, read-out: Inhibition (percent inhibition, ulcer index)) [%]"
"CC(C)=CCCC(C)=CCCC(C)=CCCC(C)=CCCC(C)=CCCC(C)=CCCC(C)=CCCC(C)=CCCC(C)=CCSCCN [Example 1, 2-(3,7,11,15,19,23,27,31,35-Nonamethyl-2,6,10,14,18,22,26,30,34-hexatriacontanonaen-1-ylthio)ethylamine]",-3.1,39.7,55.1,39.7,,,,,
"CC(=CCSCCN)CCCC(C)CCCC(C)CCCC(C)C (stereo not drawn) [Example 2, 2-(3,7,11,15-Tetramethyl-2-hexadecaen-1-ylthio)ethylamine]",9,45,69,30.8,,,,,
"CC(C)=CCCC(C)=CCSCCN [Example 3, 2-(3,7-Dimethyl-2,6-octadien-1-ylthio)ethylamine]",,,13.3,> 50,,,,,
"CC(C)=CCCC(C)=CCCC(C)=CCCC(C)=CCCC(C)=CCCC(C)=CCCC(C)=CCCC(C)=CCCC(C)=CCCC(C)=CCSCCN [Example 4, 2-(3,7,11,15,19,23,27,31,35,39-Decamethyl-2,6,10,14,18,22,26,30,34,38-tetracontadecaen-1-ylthio)ethylamine]",11.1,24.2,44.4,> 50,,,,,
"CC(C)=CCCC(C)=CCCC(C)=CCCC(C)=CCSCCN [Example 5, 2-(3,7,11,15-Tetramethyl-2,6,10,14-hexadecatetraen-1-ylthio)ethylamine]",-2.8,57.4,88,21.1,,,,,
"CC(C)=CCCC(C)=CCCC(C)=CCSCCN [Example 6, 2-(3,7,11-Trimethyl-2,6,10-dodecatrien-1-ylthio)ethylamine]",,,15.4,> 50,,,,,
"CNC(=C[N+](=O)[O-])NCCSCC=C(C)CCC=C(C)CCC=C(C)CCC=C(C)C [Example 7, 2-Methylamino-1-nitro-2-[2-(3,7,11,15-tetramethyl-2,6,10,14-hexadecatetraen-1-ylthio)ethylamino]ethylene]",-7,23.8,67.8,37.4,,,,,
"CC(C)=CCCC(C)=CCCC(C)=CCCC(C)=CCCC(C)=CCCC(C)=CCCC(C)=CCCC(C)=CCCC(C)=CCCC(C)=CCNCC12CCCN1CCC2 [Example 8, 5-{[(3,7,11,15,19,23,27,31,35,39-Decamethyl-2,6,10,14,18,22,26,30,34,38-tetracontadecaen-1-yl)amino]methyl}-1-azabicyclo[3.3.0]octane]",,,10.3,> 50,,,,,
"CC(C)=CCCC(C)=CCCC(C)=CCCC(C)=CCNCC12CCCN1CCC2 [Example 9, 5-{[(3,7,11,15-Tetramethyl-2,6,10,14-hexadecatetraen-1-yl)amino]methyl}-1-azabicyclo[3.3.0]octane]",38.4,67.9,84.9,16.6,,,,,
"CC(C)=CCCC(C)=CCCC(C)=CCCC(C)=CCCC(C)=CCCC(C)=CCCC(C)=CCCC(C)=CCCC(C)=CCCC(C)=CCSCCNC(=O)CC12CCCN1CCC2 [Example 10, N-[2-(3,7,11,15,19,23,27,31,35,39-Decamethyl-2,6,10,14,18,22,26,30,34,38-tetracontadecaen-1-ylthio)ethyl]-(1-azabicyclo[3.3.0]octan-5-yl)acetamide]",27.3,33.9,,> 50,,,,,
"CC(C)=CCCC(C)=CCCC(C)=CCCC(C)=CCSCCNC(=O)CC12CCCN1CCC2 [Example 11, N-[2-(3,7,11,15-Tetramethyl-2,6,10,14-hexadecatetraen-1-ylthio)ethyl]-(1-azabicyclo[3.3.0]octan-5-yl)acetamide]",9.4,51,68.5,26,,,,,
"CC(C)=CCCC(C)=CCCC(C)=CCCC(C)=CCN(CC=C(C)CCC=C(C)CCC=C(C)CCC=C(C)C)CC12CCCN1CCC2 [Example 12, 5-{[Bis(3,7,11,15-tetramethyl-2,6,10,14-hexadecatetraen-1-yl)amino]methyl}-1-azabicyclo[3.3.0]octane]",21.5,50,,≥ 25,,,,,
"CC(C)=CCC/C(C)=C/CC/C(C)=C/CCC(=O)OC/C=C(\C)CCC=C(C)C [Gefarnate, reference compound]",,,,,387,24.6,19.2,51.5,
"CC(=O)CCC=C(C)CCC=C(C)CCC=C(C)CCC=C(C)C [Teprenone, reference compound]",,0,9.4,> 100,,,,,48.3
